In PubChem BioAssay AID192 (DTP/NCI, 2004):
Values joined by “and” are separate entries in the source; they are usually repeats but may differ in a detail not shown here. Identical values can stand only once. Toxic doses and inconclusive results are not listed. Rule for the calls: active = survival T/C of 150% or more; inactive = T/C below 125% in these data.

Tested on: BDF1 mice, B16 melanoma ip, median survival T/C
Assay: NCI In Vivo Anticancer Drug Screen. Data for tumor model B16 Melanoma (intraperitoneal) in B6D2F1 (BDF1) mice
Conditions: endpoint: median survival time, higher = longer survival
In short: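 Survival or tumor size is measured after treatment of tumor-bearing mice and normalised to the vehicle-treated control group.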

[1] = dose: 6.25 mg/kg/injection, schedule: Q01DX009 (ip), vehicle: saline with Tween-80
[2] = dose: 12.5 mg/kg/injection, schedule: Q01DX009 (ip), vehicle: saline with Tween-80
[3] = dose: 25.0 mg/kg/injection, schedule: Q01DX009 (ip), vehicle: saline with Tween-80
[4] = dose: 100.0 mg/kg/injection, schedule: Q01DX009 (ip), vehicle: saline with Tween-80
[5] = dose: 200.0 mg/kg/injection, schedule: Q01DX009 (ip), vehicle: saline with Tween-80
[6] = dose: 100.0 mg/kg/injection, schedule: Q04DX003 (ip), vehicle: saline with Tween-80
[7] = dose: 50.0 mg/kg/injection, schedule: Q01DX009 (ip), vehicle: saline with Tween-80
[8] = dose: 50.0 mg/kg/injection, schedule: Q01DX009 (ip), vehicle: saline
[9] = dose: 400.0 mg/kg/injection, schedule: Q01DX009 (ip), vehicle: saline with Tween-80

Measured: T/C

COc1cc(NCc2ccc3nc(N)nc(N)c3c2C)cc(OC)c1OC
active: dose: 10.0 mg/kg/injection, schedule: Q01DX009 (ip), vehicle: sodium bicarbonate 155 % of control | dose: 20.0 mg/kg/injection, schedule: Q01DX009 (ip), vehicle: sodium bicarbonate 150 % of control and 164 % of control
inactive: dose: 0.62 mg/kg/injection, schedule: Q01DX009 (ip), vehicle: sodium bicarbonate 104 % of control | dose: 1.25 mg/kg/injection, schedule: Q01DX009 (ip), vehicle: sodium bicarbonate 101 % of control and 117 % of control | dose: 2.5 mg/kg/injection, schedule: Q01DX009 (ip), vehicle: sodium bicarbonate 107 % of control and 124 % of control | dose: 5.0 mg/kg/injection, schedule: Q01DX009 (ip), vehicle: sodium bicarbonate 124 % of control

CC(O)CNCCNc1ccc(NCCNCC(C)O)c2c1C(=O)c1c(O)ccc(O)c1C2=O (centres undefined)
active: dose: 0.5 mg/kg/injection, schedule: Q01DX009 (ip), vehicle: distilled water + Tween-80 150 % of control | dose: 1.0 mg/kg/injection, schedule: Q01DX009 (ip), vehicle: distilled water + Tween-80 163 % of control | dose: 2.0 mg/kg/injection, schedule: Q01DX009 (ip), vehicle: distilled water + Tween-80 178 % of control | dose: 4.0 mg/kg/injection, schedule: Q01DX009 (ip), vehicle: distilled water + Tween-80 222 % of control | dose: 8.0 mg/kg/injection, schedule: Q01DX009 (ip), vehicle: distilled water + Tween-80 222 % of control | dose: 16.0 mg/kg/injection, schedule: Q01DX009 (ip), vehicle: distilled water + Tween-80 222 % of control

Cc1cc(/C=C\c2ccc3ccccc3[n+]2C)c(O)c2ncccc12
inactive: [1] 106 % of control | [2] 101 % of control | [3] 101 % of control

O=c1[nH]c(-c2ccccc2)c(-c2ccccc2)[nH]1
inactive: [4] 90 % of control | [5] 95 % of control

CN(C)/N=C\c1ccccc1Cl
inactive: dose: 50.0 mg/kg/injection, schedule: Q04DX003 (ip), vehicle: saline with Tween-80 104 % of control | [6] 102 % of control

CCOc1ccc(NC(=O)OCCN2CCN(CCc3ccccc3)C(C)C2)cc1 (centres undefined)
inactive: [3] 108 % of control | [7] 113 % of control | [4] 101 % of control

COc1cc(C(C)(C)C)cc(OC)c1C(O)(c1c(OC)cc(C(C)(C)C)cc1OC)c1c(OC)cc(C(C)(C)C)cc1OC
inactive: [1] 102 % of control | [2] 116 % of control | [3] 109 % of control | [7] 121 % of control | [4] 109 % of control

Cc1ccc2cc3c(ccc4ccccc43)c3c2c1CC3
inactive: [8] 124 % of control | [4] 120 % of control | [6] 110 % of control | [5] 114 % of control | dose: 200.0 mg/kg/injection, schedule: Q04DX003 (ip), vehicle: saline with Tween-80 110 % of control | dose: 400.0 mg/kg/injection, schedule: Q04DX003 (ip), vehicle: saline with Tween-80 115 % of control

CC(C)C1=CC2=CCC3C(C)(CN)CCCC3(C)C2CC1CCN (centres undefined)
inactive: dose: 1.25 mg/kg/injection, schedule: Q01DX009 (ip), vehicle: saline with Tween-80 100 % of control | dose: 1.25 mg/kg/injection, schedule: Q04DX003 (ip), vehicle: saline with Tween-80 104 % of control | dose: 2.5 mg/kg/injection, schedule: Q01DX009 (ip), vehicle: saline with Tween-80 99 % of control | dose: 2.5 mg/kg/injection, schedule: Q04DX003 (ip), vehicle: saline with Tween-80 88 % of control | dose: 5.0 mg/kg/injection, schedule: Q01DX009 (ip), vehicle: saline with Tween-80 91 % of control | dose: 5.0 mg/kg/injection, schedule: Q04DX003 (ip), vehicle: saline with Tween-80 90 % of control

O=C(CBr)c1ccc(F)cc1
inactive: dose: 3.12 mg/kg/injection, schedule: Q01DX009 (ip), vehicle: Klucel (hydroxypropylcellulose) (HPC) 106 % of control | dose: 6.25 mg/kg/injection, schedule: Q01DX009 (ip), vehicle: Klucel (hydroxypropylcellulose) (HPC) 91 % of control | dose: 12.5 mg/kg/injection, schedule: Q01DX009 (ip), vehicle: Klucel (hydroxypropylcellulose) (HPC) 99 % of control

CCCCCCCCSSCCCCCCCC
inactive: [4] 108 % of control | [5] 101 % of control | [9] 98 % of control

CC(=O)Nc1ccc(/C=N/NC(N)=S)cc1
inactive: dose: 25.0 mg/kg/injection, schedule: Q01DX009 (ip), vehicle: Klucel (hydroxypropylcellulose) (HPC) 102 % of control | [3] 108 % of control | dose: 50.0 mg/kg/injection, schedule: Q01DX009 (ip), vehicle: Klucel (hydroxypropylcellulose) (HPC) 100 % of control | [7] 105 % of control | dose: 100.0 mg/kg/injection, schedule: Q01DX009 (ip), vehicle: Klucel (hydroxypropylcellulose) (HPC) 102 % of control | [4] 100 % of control | dose: 200.0 mg/kg/injection, schedule: Q01DX009 (ip), vehicle: Klucel (hydroxypropylcellulose) (HPC) 105 % of control | [5] 98 % of control | dose: 400.0 mg/kg/injection, schedule: Q01DX009 (ip), vehicle: Klucel (hydroxypropylcellulose) (HPC) 100 % of control | [9] 95 % of control

Cc1cc2nc3ccc(=[N+](C)C)cc-3sc2cc1N
inactive: dose: 3.12 mg/kg/injection, schedule: Q01DX009 (ip), vehicle: saline 116 % of control | dose: 12.5 mg/kg/injection, schedule: Q01DX009 (ip), vehicle: saline 116 % of control | dose: 25.0 mg/kg/injection, schedule: Q01DX009 (ip), vehicle: saline 107 % of control | [8] 97 % of control

O=C(CCCCC(=O)Nc1ccc(C2=NCCN2)cc1)Nc1ccc(C2=NCCN2)cc1
inactive: dose: 50.0 mg/kg/injection, schedule: Q04DX003 (ip), vehicle: saline 96 % of control | dose: 100.0 mg/kg/injection, schedule: Q04DX003 (ip), vehicle: saline 93 % of control | dose: 200.0 mg/kg/injection, schedule: Q04DX003 (ip), vehicle: saline 90 % of control | dose: 400.0 mg/kg/injection, schedule: Q04DX003 (ip), vehicle: saline 86 % of control

CC(=O)Nc1ccc(N=Nc2c(O)c(S(=O)(=O)O)cc3cc(S(=O)(=O)O)ccc23)cc1
inactive: [5] 100 % of control

Cn1nc(N)c2ncc(-c3ccc(Cl)cc3)nc21
inactive: [2] 91 % of control | [3] 90 % of control

Nc1nc(N)c2c(ccc3c2ccn3Cc2cccc([N+](=O)[O-])c2)n1
inactive: dose: 1.56 mg/kg/injection, schedule: Q01DX009 (ip), vehicle: saline with Tween-80 90 % of control | dose: 3.12 mg/kg/injection, schedule: Q01DX009 (ip), vehicle: saline with Tween-80 100 % of control | [1] 119 % of control
